Reference: publication PMC11863921 (BMC Biology, 2025)
“Also recorded” adds a separate entry of the source.

Assays:
[1] = target: Acanthaster cf. solaris relaxin family peptide receptor/leucine-rich repeat G protein-coupled receptor 3, N-terminally modified (prolactin signal peptide, FLAG tag) (Acanthaster cf. solaris)
[2] = tested on: ArubRXFP/LGR3; experiment: Luminescence (GFP-aequorin G5A, GqS5) assay in CHO-K1 cells transfected with ArubRXFP/LGR3; type: cell-based, A. rubens; conditions: for luminescence response at 10^−5 M versus background: basal media as background; for EC50: 10^−14 to 10^−5 M, 35 s, three independent transfections, four-parameter fit, read-out: EC50 for induced luminescence; for luminescence response versus BSA control: 10–5 M, 30 s, one-way ANOVA with Bonferroni (***p < 0.001, *p < 0.1), Fig. S6; for dose-dependent triggering of luminescence: Fig. 6 A, B
Description: (§1) ArubRGP1 and ArubRGP2 were tested as ligands for ArubRXFP/LGR3 (isoform X2; XP_033631990.1) and ArubLGR4 (isoform X3; XP_033635731.1) by co-transfection of CHO-K1 cells stably expressing the green fluorescent protein (GFP) – apoaequorin construct G5A [25] with the chimeric G-protein Gqs5, which is a Gq-type protein modified to incorporate Gs-type sequences that enable it to interact with GPCRs that preferentially couple to Gs-type G-proteins. Synthetic ArubRGP1 or ArubRGP2 were initially tested at a concentration of 10^−5 M, comparing with luminescence measured in transfected cells incubated in basal media without the addition of ArubRGP1 or ArubRGP2.
(§2) A. rubens RGP1 and RGP2 (ArubRGP1, ArubRGP2) were custom synthesized with a purity of > 95%, as reported previously. Two genes encoding relaxin receptor-related proteins were identified in A. rubens and, informed by phylogenetic analysis, these were named ArubRXFP/LGR3 and ArubLGR4. Then cDNAs encoding these proteins were custom synthesized with the inclusion of a 5′ partial Kozak translation initiation sequence (GCCACC) and incorporated into the mammalian expression vector pcDNA 3.1( +) (Genscript, Hong Kong) (Additional file 18: Dataset S11). Likewise, a cDNA encoding an N-terminally modified form of ArubRXFP/LGR3 incorporating an N-terminal signal peptide from the bovine prolactin precursor was also synthesized (with codon optimization for mammalian expression) (Genewiz, Takeley, UK) and this is referred to henceforth as ArubRXFP/LGR3(modified) (Additional file 18: Dataset S11). Chinese hamster ovary cells (CHO-K1) stably expressing the calcium-sensitive aequorin fusion protein G5A were used as an expression system. This cell line was supplied by Prof. Gaspar Jékely (University of Heidelberg, Germany) and tested negative for mycoplasma contamination using a MycoAlert PLUS kit (Lonza, Switzerland). The CHO-K1 cells were cultured in a culture medium comprising DMEM/F12, 10% fetal bovine serum, antibiotic–antimycotic, and 20 µg/mol Geneticin G418 sulfate (all purchased from Thermo Fisher scientific, Oxford, UK; cat no. 11039047, 10,082,147, 15,240,062, and 10,131,035, respectively.) When the cells reached 80% confluency, they were co-transfected with plasmids containing cDNAs encoding ArubRXFP/LGR3, ArubRXFP/LGR3(modified), or ArubLGR4 and a plasmid encoding the chimeric G-protein GqS5 (Addgene, Watertown USA), which enables GPCRs that preferentially couple to Gq-type or Gs-type proteins to signal via the phospholipase-C signaling pathway.
AruRGP1 and AruRGP2 were tested as ligands for the A. rubens receptors using luminescence-based assays, which have been described previously. Thus, 48 h after transfection, cells were detached by using PBS buffer (pH7.4; Thermofisher Scientific, Oxford, UK; cat no.10010023) supplemented with a final concentration of 5 mM EDTA pH8.0 (Thermo Fisher Scientific, Oxford, UK; cat no.15575020). Cells were then washed with DMEM/F12 buffer and then incubated with […] coelenterazine-H (Thermo Fisher Scientific, Oxford, UK; cat no. C6780) at room temperature with stirring for 3 h. ArubRGP1 or ArubRGP2 were prepared at concentrations ranging from 10^−14 to 10^−5 M and then were pipetted into 96-well plates (Costar Assay microplate, REF: 3903 or Falcon 96 well microplate, Code: 353,377). A FLUOstar Omega Plate Reader (BMG LABTECH; FLUOstar Omega Series multi-mode microplate reader) with injectors was used to sequentially add transfected CHO-K1 cells to each test well of the microtiter plate and luminescence was recorded over a 35-s period. Luminescence data were integrated over the 35 s measurement period and the mean of the triplicate measurements was calculated. Responses were normalized to the maximum response obtained in each experiment (100% activation) and to luminescence measured with the vehicle media (0% activation) (Additional file 19: Dataset S12). […]

[3] = tested on: modified ArubRXFP/LGR3; experiment: Luminescence (GFP-aequorin G5A, GqS5) assay in CHO-K1 cells transfected with modified ArubRXFP/LGR3; type: cell-based, A. rubens; conditions: Fig. 6 C, D
Text: Thus, modified ArubRXFP/LGR3 was similar in this respect to the modified AsolRXFP/LGR3 protein (Fig. 5).
A. rubens RGP1 and RGP2 (ArubRGP1, ArubRGP2) were custom synthesized with a purity of > 95%, as reported previously. Two genes encoding relaxin receptor-related proteins were identified in A. rubens and, informed by phylogenetic analysis, these were named ArubRXFP/LGR3 and ArubLGR4. Then cDNAs encoding these proteins were custom synthesized with the inclusion of a 5′ partial Kozak translation initiation sequence (GCCACC) and incorporated into the mammalian expression vector pcDNA 3.1( +) (Genscript, Hong Kong) (Additional file 18: Dataset S11). […]
(§3) AruRGP1 and AruRGP2 were tested as ligands for the A. rubens receptors using luminescence-based assays, which have been described previously. […] A FLUOstar Omega Plate Reader (BMG LABTECH; FLUOstar Omega Series multi-mode microplate reader) with injectors was used to sequentially add transfected CHO-K1 cells to each test well of the microtiter plate and luminescence was recorded over a 35-s period. Luminescence data were integrated over the 35 s measurement period and the mean of the triplicate measurements was calculated. Responses were normalized to the maximum response obtained in each experiment (100% activation) and to luminescence measured with the vehicle media (0% activation) (Additional file 19: Dataset S12). […]

[4] = tested on: ArubLGR4; experiment: Luminescence (GFP-aequorin G5A, GqS5) assay in CHO-K1 cells transfected with ArubLGR4; type: cell-based, A. rubens; conditions: for luminescence versus basal media: 10^−5 M; for luminescence response: 10^−14 to 10^−5 M, Fig. 6 E, F
Description: as §1
as §2, with “The CHO-K1 cells were cultured in a culture medium comprising DMEM/F12, 10% fetal bovine serum, antibiotic–antimycotic, and 20 µg/mol Geneticin G418 sulfate (all purchased from Thermo Fisher scientific, Oxford, UK; cat no. 11039047, 10,082,147, 15,240,062, and 10,131,035, respectively.) When the cells reached 80% confluency, they were co-transfected with plasmids containing cDNAs encoding ArubRXFP/LGR3, ArubRXFP/LGR3(modified), or ArubLGR4 and a plasmid encoding the chimeric G-protein GqS5 (Addgene, Watertown USA), which enables GPCRs that preferentially couple to Gq-type or Gs-type proteins to signal via the phospholipase-C signaling pathway.” left out
as §3

[5] = tested on: CHO-K1 cells transfected with an empty pcDNA3.1 + vector; experiment: Luminescence (GFP-aequorin G5A, GqS5) assay in CHO-K1 cells transfected with empty pcDNA3.1 vector; type: cell-based, Chinese hamster; conditions: 10^−14 to 10^−5 M, Fig. 6 G, H
Description: as §1, with “ArubRGP2. […]” for “ArubRGP2.”
as §3

[6] = target: Asterias rubens relaxin family peptide receptor/leucine-rich repeat G protein-coupled receptor 3 (isoform X2) (Asterias rubens)
[7] = target: modified ArubRXFP/LGR3 (N-terminal region with the predicted internal signal peptide replaced by the prolactin precursor signal peptide) (Asterias rubens)
[8] = target: Asterias rubens relaxin family peptide receptor/leucine-rich repeat G protein-coupled receptor 3 (isoform X2) (Asterias rubens); remark: listed apart in the source

| percentage of forskolin-induced cAMP levels (CRE reporter) in CHO-AsolRXFP/LGR3 cells at 10 µM AsolRGP2; no dose-response curve could be fitted (% forskolin response) [1] | EC50 of peptide-induced luminescence (GFP-apoaequorin G5A, chimeric G-protein GqS5) in CHO-K1 cells transfected with ArubRXFP/LGR3, 10^-14 to 10^-5 M [6] | EC50 of peptide-induced luminescence (GFP-apoaequorin G5A, chimeric G-protein GqS5) in CHO-K1 cells transfected with modified ArubRXFP/LGR3 [7] | EC50 of peptide-induced luminescence (GFP-apoaequorin G5A, chimeric G-protein GqS5) in CHO-K1 cells transfected with ArubRXFP/LGR3 [8] | Substance | luminescence response at 10^−5 M versus background [2] | EC50 [2] | luminescence response versus BSA control [2] | dose-dependent triggering of luminescence [2] | dose-dependent triggering of luminescence [3] | luminescence versus basal media [4] | luminescence response [4] | luminescence response [5] |
| --- | --- | --- | --- | --- | --- | --- | --- | --- | --- | --- | --- | --- |
| 12.2 |  |  |  | Acanthaster cf. solaris relaxin-like gonad-stimulating peptide 2 (ligand) |  |  |  |  |  |  |  |  |
|  |  |  |  | Asterias rubens Relaxin-like gonad-stimulating peptide 1 [ArubRGP1] | approximately twice the background luminescence | 22.5 nM | significantly higher | trigger dose-dependent luminescence | trigger dose-dependent luminescence | not significantly different | no response; also recorded: do not trigger luminescence | no response; also recorded: do not trigger luminescence |
|  |  |  |  | Asterias rubens Relaxin-like gonad-stimulating peptide 2 [ArubRGP2] | approximately twice the background luminescence | 383 nM | significantly higher | trigger dose-dependent luminescence | trigger dose-dependent luminescence | not significantly different | no response; also recorded: do not trigger luminescence | no response; also recorded: do not trigger luminescence |
|  | 22.5 nM | 110 nM | 25 nM | Asterias rubens relaxin-like gonad-stimulating peptide 1 (ligand) |  |  |  |  |  |  |  |  |
